# Measured values reported in patent US9193721B2, “Fused derivatives as PI3Kδ inhibitors” (Incyte Holdings Corporation, priority 2010, dated 2015).
# Where a name gives a salt, the structure may show the parent alone.
# Tests used:
# PI3Kδ (p110δ/p85α) = molecular target: T1, PI3Kδ (p110δ/p85α) (Homo sapiens, UniProt O00329); experiment: PI3Kδ scintillation proximity assay (assay A); format: biochemical; conditions: 20 μM PIP2, 20 μM ATP, 4 nM PI3Kδ, 210 minutes, room temperature
# T1 construct: purchased Millipore (Bedford, Mass.)
# Experimental: PI3Kδ Scintillation Proximity Assay
# [γ-33P] ATP (10 mCi/mL) was purchased from Perkin-Elmer (Waltham, Mass.). […] PI3Kδ (p110δ/p85α) was purchased from Millipore (Bedford, Mass.). ATP, MgCl2, DTT, EDTA, MOPS and CHAPS were purchased from Sigma-Aldrich (St. Louis, Mo.). Wheat Germ Agglutinin (WGA) YSi SPA Scintillation Beads was purchased from GE healthcare life sciences (Piscataway, N.J.).
# The kinase reaction was conducted in polystyrene 384-well matrix white plate from Thermo Fisher Scientific in a final volume of 25 μL. Inhibitors were first diluted serially in DMSO and added to the plate wells before the addition of other reaction components. The final concentration of DMSO in the assay was 0.5%. The PI3K assays were carried out at room temperature in 20 mM MOPS, pH 6.7, 10 mM MgCl2, 5 mM DTT and CHAPS 0.03%. Reactions were initiated by the addition of ATP, the final reaction mixture consisted of 20 μM PIP2, 20 μM ATP, 0.2 μCi [γ-^33P] ATP, 4 nM PI3Kδ. Reactions were incubated for 210 minutes and terminated by the addition of 40 μL SPA beads suspended in quench buffer: 150 mM potassium phosphate pH 8.0, 20% glycerol. 25 mM EDTA, 400 μM ATP. The final concentration of SPA beads is 1.0 mg/mL. After the plate sealing, plates were shaken overnight at room temperature and centrifuged at 1800 rpm for 10 minutes, the radioactivity of the product was determined by scintillation counting on Topcount (Perkin-Elmer). IC50 determination was performed by fitting the curve of percent control activity versus the log of the inhibitor concentration using the GraphPad Prism 3.0 software.
# [1] = tested on: Pfeiffer cell line (diffuse large B cell lymphoma); experiment: Pfeiffer cell proliferation assay; format: cell-based; conditions: Homo sapiens, [3H]-thymidine incorporation after 3-4 days plus 12 hours
# Experimental: Pfeiffer Cell Proliferation Assay
# Pfeiffer cell line (diffuse large B cell lymphoma) was purchased from ATCC (Manassas, Va.) and maintained in the culture medium recommended (RPMI and 10% FBS). To measure the anti-proliferation activity of the compounds, the Pfeiffer cells were plated with the culture medium (2×10^3 cells/well/per 200 μl) into 96-well ultra-low binding plates (Corning, Corning, N.Y.), in the presence or absence of a concentration range of test compounds. After 3-4 days, [^3H]-thymidine (1 μCi/well) (PerkinElmer, Boston, Mass.) in PBS was then added to the cell culture for an additional 12 hours before the incorporated radioactivity was separated by filtration with water through GF/B filters (Packard Bioscience, Meridenj, Conn.) and measured by liquid scintillation counting with a TopCount (Packard Bioscience).
# T1 sequence (O00329 whole entry): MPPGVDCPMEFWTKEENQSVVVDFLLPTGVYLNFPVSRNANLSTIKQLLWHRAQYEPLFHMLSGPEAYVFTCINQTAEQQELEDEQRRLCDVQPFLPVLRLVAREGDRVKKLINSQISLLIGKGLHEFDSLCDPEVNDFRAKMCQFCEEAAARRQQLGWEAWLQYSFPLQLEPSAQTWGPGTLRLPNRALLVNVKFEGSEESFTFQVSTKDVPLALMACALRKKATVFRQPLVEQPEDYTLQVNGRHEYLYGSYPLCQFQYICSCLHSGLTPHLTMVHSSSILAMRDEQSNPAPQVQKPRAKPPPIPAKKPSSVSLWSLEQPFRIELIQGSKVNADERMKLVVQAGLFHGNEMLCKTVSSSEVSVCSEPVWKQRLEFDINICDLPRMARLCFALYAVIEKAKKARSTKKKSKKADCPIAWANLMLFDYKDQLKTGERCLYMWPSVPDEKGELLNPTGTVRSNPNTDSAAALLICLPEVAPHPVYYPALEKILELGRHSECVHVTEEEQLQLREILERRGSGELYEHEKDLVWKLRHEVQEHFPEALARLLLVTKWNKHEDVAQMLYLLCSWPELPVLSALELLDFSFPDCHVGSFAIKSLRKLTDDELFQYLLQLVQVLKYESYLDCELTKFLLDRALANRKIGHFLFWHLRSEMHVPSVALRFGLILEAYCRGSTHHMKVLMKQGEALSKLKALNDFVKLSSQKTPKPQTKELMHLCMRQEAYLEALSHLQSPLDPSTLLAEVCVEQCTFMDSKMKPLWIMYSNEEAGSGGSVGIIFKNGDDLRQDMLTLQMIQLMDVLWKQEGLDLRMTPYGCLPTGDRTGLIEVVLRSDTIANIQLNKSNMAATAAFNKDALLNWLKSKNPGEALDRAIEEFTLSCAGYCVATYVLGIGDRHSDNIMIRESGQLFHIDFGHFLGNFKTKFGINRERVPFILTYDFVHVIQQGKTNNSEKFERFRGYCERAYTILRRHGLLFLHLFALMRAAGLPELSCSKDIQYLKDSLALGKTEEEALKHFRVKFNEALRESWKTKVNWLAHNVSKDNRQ
# T1 sequence (P27986 whole entry partner): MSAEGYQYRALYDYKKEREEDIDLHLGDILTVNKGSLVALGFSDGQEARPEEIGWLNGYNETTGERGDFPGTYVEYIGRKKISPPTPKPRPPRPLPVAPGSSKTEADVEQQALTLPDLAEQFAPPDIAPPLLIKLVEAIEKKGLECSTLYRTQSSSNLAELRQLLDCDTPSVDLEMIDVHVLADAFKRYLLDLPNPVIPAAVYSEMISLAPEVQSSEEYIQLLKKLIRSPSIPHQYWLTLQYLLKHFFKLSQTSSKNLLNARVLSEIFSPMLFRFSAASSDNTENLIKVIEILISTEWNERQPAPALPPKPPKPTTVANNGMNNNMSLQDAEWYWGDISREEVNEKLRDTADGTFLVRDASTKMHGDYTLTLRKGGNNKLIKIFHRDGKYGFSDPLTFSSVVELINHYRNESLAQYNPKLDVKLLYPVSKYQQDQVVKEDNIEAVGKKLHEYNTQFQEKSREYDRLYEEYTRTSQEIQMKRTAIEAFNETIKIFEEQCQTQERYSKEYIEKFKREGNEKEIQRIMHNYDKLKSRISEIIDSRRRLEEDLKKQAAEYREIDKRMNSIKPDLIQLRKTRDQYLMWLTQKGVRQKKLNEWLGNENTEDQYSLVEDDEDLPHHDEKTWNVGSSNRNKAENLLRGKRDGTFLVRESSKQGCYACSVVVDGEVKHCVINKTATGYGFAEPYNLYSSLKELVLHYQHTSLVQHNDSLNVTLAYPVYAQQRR
IC50 (PI3Kδ (p110δ/p85α)),IC50 [1],Compound
50 to 200 nM,> 3000 nM,"CC(Nc1ncnc2[nH]cnc12)c1cc(Cl)c2cncn2c1N1CCN(S(C)(=O)=O)CC1 (stereo not drawn) [Example 5, N-(1-{8-chloro-5-[4-(methylsulfonyl)piperazin-1-yl]imidazo[1,5-a]pyridin-6-yl}ethyl)-9H-purin-6-amine]"
50 to 200 nM,≤ 100 nM,"CC(Nc1ncnc2[nH]cnc12)c1cc(Cl)c2cncn2c1N1CCN(CCCC(F)(F)F)CC1 (stereo not drawn) [Example 14, N-(1-{8-Chloro-5-[4-(4,4,4-trifluorobutyl)piperazin-1-yl]imidazo[1,5-a]pyridin-6-yl}ethyl)-9H-purin-6-amine]"
< 50 nM,≤ 100 nM,"CC(Nc1ncnc2[nH]cnc12)c1cc(Cl)c2cncn2c1N1CCNCC1 (stereo not drawn) [Example 9, N-[1-(8-Chloro-5-piperazin-1-ylimidazo[1,5-a]pyridin-6-yl)ethyl]-9H-purin-6-amine dihydrochloride]"
< 50 nM,500 to 1000 nM,"CC(=O)N1CCN(c2c(C(C)Nc3ncnc4[nH]cnc34)cc(Cl)c3cncn23)CC1 (stereo not drawn) [Example 4, N-{1-[5-(4-Acetylpiperazin-1-yl)-8-chloroimidazo[1,5-a]pyridin-6-yl]ethyl}-9H-purin-6-amine]"
200 to 750 nM,1000 to 3000 nM,"CC(Nc1ncnc2[nH]cnc12)c1cc(Cl)c2nccn2c1-c1cccc(F)c1 (stereo not drawn) [Example 3, N-{1-[8-Chloro-5-(3-fluorophenyl)imidazo[1,2-a]pyridin-6-yl]ethyl}-9H-purin-6-amine]"
200 to 750 nM,100 to 500 nM,"CC(Nc1ncnc2[nH]cnc12)c1cc(Cl)c2cncn2c1N1CCN(CC2CC2)CC1 (stereo not drawn) [Example 17, N-(1-{8-Chloro-5-[4-(cyclopropylmethyl)piperazin-1-yl]imidazo[1,5-a]pyridin-6-yl}ethyl)-9H-purin-6-amine]"
